# Source: ChEMBL document CHEMBL4196011, “The lead optimization of the polyamine conjugate of flavonoid with a naphthalene motif: Synthesis and biological evaluation” (Eur J Med Chem, 2018)
# The source made the active and inactive calls. The rule behind the calls is not given here.
# Experiments:
# HepG2 [1] = assay: Cytotoxicity in human HepG2 cells assessed as gain in lysosomal mass/pH after 48 hrs by LysoTracker Red dye-based fluorescence assay; format: functional, cell-based
# HCT-116 = assay: Antiproliferative activity against human HCT116 cells after 48 hrs by MTT assay; format: functional, cell-based; conditions: HCT-116, 48 h
# HepG2 [2] = assay: Antiproliferative activity against human HepG2 cells after 48 hrs by MTT assay; format: functional, cell-based; conditions: HepG2, 48 h
# H22 = assay: Antitumor activity against […] xenografted in Kunming mouse assessed as tumor growth inhibition at 40 mg/kg, iv for 7 consecutive days measured on day 16; format: functional; conditions: 384 h, read-out: TGI
# [3] = Toxicity in iv dosed Kunming mouse assessed as maximum tolerated dose administered for 7 consecutive days; format: organism-based; conditions: in vivo
# Mus musculus = assay: Toxicity in Kunming mouse xenografted with […] H22 cells assessed as effect on lung weight index at 30 mg/kg, iv administered for 7 consecutive days; format: organism-based; conditions: in vivo
# [4] = Drug localization in lysosomes of human HepG2 cells at 7.5 uM after 8 hrs by LysoTracker Red dye-based confocal fluorescence microscopic analysis; format: ADME, subcellular, Lysosome; conditions: hepg2, 8 h
# [5] = Drug localization in nucleus of human HepG2 cells at 7.5 uM after 8 hrs by Hoechst 33342 staining-based HCS analysis; format: ADME, subcellular; conditions: hepg2, 8 h
# HepG2 [6] = assay: Induction of apoptosis in human HepG2 cells assessed as early apoptotic cells at 7.5 uM after 8 hrs by Annexin V-FITC/propidium iodide staining-based flow cytometry (reference value: 1.29%); format: functional
# HepG2 [7] = assay: Induction of apoptosis in human HepG2 cells assessed as late apoptotic cells at 5 uM after 8 hrs by Annexin V-FITC/propidium iodide staining-based flow cytometry (reference value: 0.88%); format: functional
# HepG2 [8] = assay: Induction of apoptosis in human HepG2 cells assessed as viable cells at 5 uM after 8 hrs by Annexin V-FITC/propidium iodide staining-based flow cytometry (reference value: 97.43%); format: functional; conditions: HepG2, 8 h, read-out: Activity
# HepG2 [9] = assay: Induction of apoptosis in human HepG2 cells assessed as early apoptotic cells at 2.5 uM after 24 hrs by Annexin V-FITC/propidium iodide staining-based flow cytometry (reference value: 2.07%); format: functional
# HepG2 [10] = assay: Induction of apoptosis in human HepG2 cells assessed as late apoptotic cells at 2.5 uM after 24 hrs by Annexin V-FITC/propidium iodide staining-based flow cytometry (reference value: 0.88%); format: functional
# HepG2 [11] = assay: Induction of apoptosis in human HepG2 cells assessed as late apoptotic cells at 7.5 uM after 24 hrs by Annexin V-FITC/propidium iodide staining-based flow cytometry (reference value: 0.88%); format: functional
# HepG2 [12] = assay: Induction of apoptosis in human HepG2 cells assessed as necrotic cells at 7.5 uM after 24 hrs by Annexin V-FITC/propidium iodide staining-based flow cytometry (reference value: 0.12%); format: functional
# HepG2 [13] = assay: Induction of apoptosis in human HepG2 cells assessed as viable cells at 7.5 uM after 24 hrs by Annexin V-FITC/propidium iodide staining-based flow cytometry (reference value: 96.97%); format: functional; conditions: HepG2, 24 h, read-out: Activity
# HepG2 [14] = assay: Induction of apoptosis in human HepG2 cells assessed as late apoptotic cells at 5 uM after 24 hrs by Annexin V-FITC/propidium iodide staining-based flow cytometry (reference value: 0.88%); format: functional
# HepG2 [15] = assay: Induction of apoptosis in human HepG2 cells assessed as late apoptotic cells at 7.5 uM after 36 hrs by Annexin V-FITC/propidium iodide staining-based flow cytometry (reference value: 1.08%); format: functional
# HepG2 [16] = assay: Induction of apoptosis in human HepG2 cells assessed as late apoptotic cells at 5 uM after 36 hrs by Annexin V-FITC/propidium iodide staining-based flow cytometry (reference value: 1.08%); format: functional
# HepG2 [17] = assay: Induction of apoptosis in human HepG2 cells assessed as early apoptotic cells at 2.5 uM after 48 hrs by Annexin V-FITC/propidium iodide staining-based flow cytometry (reference value: 1.30%); format: functional
# HepG2 [18] = assay: Induction of apoptosis in human HepG2 cells assessed as necrotic cells at 2.5 uM after 48 hrs by Annexin V-FITC/propidium iodide staining-based flow cytometry (reference value: 0.08%); format: functional
# HepG2 [19] = assay: Induction of apoptosis in human HepG2 cells assessed as viable cells at 2.5 uM after 48 hrs by Annexin V-FITC/propidium iodide staining-based flow cytometry (reference value: 96.67%); format: functional; conditions: HepG2, 48 h, read-out: Activity
# HepG2 [20] = assay: Induction of apoptosis in human HepG2 cells assessed as early apoptotic cells at 7.5 uM after 48 hrs by Annexin V-FITC/propidium iodide staining-based flow cytometry (reference value: 1.30%); format: functional
# HepG2 [21] = assay: Induction of apoptosis in human HepG2 cells assessed as late apoptotic cells at 7.5 uM after 48 hrs by Annexin V-FITC/propidium iodide staining-based flow cytometry (reference value: 0.95%); format: functional
# HepG2 [22] = assay: Induction of apoptosis in human HepG2 cells assessed as necrotic cells at 7.5 uM after 48 hrs by Annexin V-FITC/propidium iodide staining-based flow cytometry (reference value: 0.08%); format: functional
# HepG2 [23] = assay: Induction of apoptosis in human HepG2 cells assessed as early apoptotic cells at 5 uM after 48 hrs by Annexin V-FITC/propidium iodide staining-based flow cytometry (reference value: 1.30%); format: functional
# HepG2 [24] = assay: Induction of apoptosis in human HepG2 cells assessed as decrease in Bcl2 protein expression after 48 hrs by immunofluorescence staining-based high content screening assay; format: functional, cell-based
# HepG2 [25] = assay: Induction of apoptosis in human HepG2 cells assessed as increase in Bid expression levels after 48 hrs by immunofluorescence staining-based high content screening assay; format: functional, cell-based
# HepG2 [26] = assay: Induction of apoptosis in human HepG2 cells assessed as increase in p53 protein expression after 48 hrs by immunofluorescence staining-based high content screening assay; format: functional, cell-based
# HepG2 [27] = assay: Induction of apoptosis in human HepG2 cells assessed as increase in cleaved PARP1 levels after 48 hrs by immunofluorescence staining-based high content screening assay; format: functional, cell-based
# HepG2 [28] = assay: Induction of apoptosis in human HepG2 cells assessed as caspase 3 activation after 48 hrs by immunofluorescence staining-based high content screening assay; format: functional, cell-based
# HepG2 [29] = assay: Induction of apoptosis in human HepG2 cells assessed as upregulation of active caspase 8 level after 48 hrs by immunofluorescence staining-based high content screening assay; format: functional, cell-based
# HepG2 [30] = assay: Induction of autophagy in human HepG2 cells assessed as upregulation of beclin1 expression at 5 uM by Western blot analysis; format: functional, cell-based
# HepG2 [31] = assay: Induction of autophagy in human HepG2 cells assessed as increase in LC3-2 expression at 5 uM in presence of autophagy inhibitor 3-MA by Western blot analysis; format: functional, cell-based
# [32] = Drug uptake in human HepG2 cells assessed as PAT-mediated compound uptake at 10 uM after 8 hrs in presence of spermidine by HCS analysis; format: ADME, cell-based; conditions: hepg2, 8 h
# [33] = Cytotoxicity against human QSG7701 cells up to 15 uM after 48 hrs by MTT assay; format: cell-based
# HepG2 [34] = assay: Induction of autophagy in human HepG2 cells assessed as formation of autolysosomes after 48 hrs by MDC staining-based assay; format: functional, cell-based
compound,measurement,setting,value
COc1ccc2cc(-c3oc4c(CNCCCCN)cccc4c(=O)c3OC)ccc2c1Br.Cl.Cl,Activity,HepG2 [1],Dose-dependent effect
same,IC50,HCT-116,15.1 µM
same,IC50,HepG2 [2],7.1 µM
same,inhibition in vivo at 40 mg/kg,H22,69.1%
same,MTD at 7 days,[3],50 mg/kg
same,Activity,Mus musculus,Non-Toxic
same,Drug uptake,[4],Not Active
same,Drug uptake,[5],Not Active
same,Activity,HepG2 [6],18.1%
same,Activity,HepG2 [7],1.91%
same,viability at 5 µM,HepG2 [8],93%
same,Activity,HepG2 [9],10.46%
same,Activity,HepG2 [10],0.88%
same,Activity,HepG2 [11],9.48%
same,Activity,HepG2 [12],4.51%
same,viability at 7.5 µM,HepG2 [13],67.2%
same,Activity,HepG2 [14],2.03%
same,Activity,HepG2 [15],6.3%
same,Activity,HepG2 [16],2.15%
same,Activity,HepG2 [17],21.8%
same,Activity,HepG2 [18],0.29%
same,viability at 2.5 µM,HepG2 [19],74.1%
same,Activity,HepG2 [20],23.02%
same,Activity,HepG2 [21],31.22%
same,Activity,HepG2 [22],0.17%
same,Activity,HepG2 [23],26.36%
same,Activity,HepG2 [24],Active
same,Activity,HepG2 [25],Dose-dependent effect
same,Activity,HepG2 [26],Dose-dependent effect
same,Activity,HepG2 [27],Dose-dependent effect
same,Activity,HepG2 [28],Dose-dependent effect
same,Activity,HepG2 [29],Dose-dependent effect
same,Activity,HepG2 [30],Active
same,Activity,HepG2 [31],inactive
same,Drug uptake,[32],Not Active
same,Activity,[33],Non-Toxic
same,Activity,HepG2 [34],Dose-dependent effect
